Data from patent US10300071B2, “Compositions and methods for inhibition of mycobacteria” (priority 2014, dated 2019).
Values after ≈ are worked out from the molar mass of the structure shown.

Columns and labels:
Mtb AccD6 = Mtb AccD6 (Mycobacterium tuberculosis, UniProt P9WQH5); experiment: biochemical; format: biochemical; conditions: for IC50: 300 μM malonyl-CoA, inhibitor 10 μM to 2000 μM, read-out: IC50
Mtb strain mc^2-7000 = experiment: microbe, parasite or virus in culture; format: cell-based, Mycobacterium tuberculosis; conditions: Mycobacterium tuberculosis, 144 h; 6 days incubation at 37° C., resazurin, read on the 7th day; read-out: MIC

Chain of Mtb AccD6 (P9WQH5 whole entry, looked up): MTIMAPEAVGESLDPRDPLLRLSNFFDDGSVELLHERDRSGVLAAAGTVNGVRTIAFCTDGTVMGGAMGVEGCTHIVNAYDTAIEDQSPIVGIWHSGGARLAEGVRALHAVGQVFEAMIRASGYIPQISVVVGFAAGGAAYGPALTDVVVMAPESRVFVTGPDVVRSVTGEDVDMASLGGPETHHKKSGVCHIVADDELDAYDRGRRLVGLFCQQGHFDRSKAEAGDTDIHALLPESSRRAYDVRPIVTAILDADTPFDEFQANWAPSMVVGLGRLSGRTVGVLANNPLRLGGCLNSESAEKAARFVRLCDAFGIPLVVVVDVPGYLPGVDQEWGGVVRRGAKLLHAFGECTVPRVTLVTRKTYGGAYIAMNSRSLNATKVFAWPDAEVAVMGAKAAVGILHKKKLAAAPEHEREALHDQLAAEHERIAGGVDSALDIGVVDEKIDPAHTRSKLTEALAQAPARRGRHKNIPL

| SMILES | IC50 (Mtb AccD6) [nM] | MIC (Mtb strain mc^2-7000) [µM] | concentrations at which not toxic, s. cerevisiae cytotoxicity (S. cerevisiae) [µM] | concentrations at which not toxic, human fibroblast cytotoxicity (human fibroblast) [µM] | inhibition at 20 µM (Mtb AccD6; read-out: inhibition at 20 uM) [%] | inhibition at 15 µM (Mtb AccD6; 15 uM) [%] |
| --- | --- | --- | --- | --- | --- | --- |
| CONC(=O)C(C)c1ccc(Oc2nc3ccc(F)cc3s2)cc1 (racemic) [NZ-330, 2-{4-[(6-fluoro-1,3-benzothiazol-2-yl)oxy]phenyl}-N-methoxypropanamide] | 240 | 1.5 (≈ 0.52 µg/mL) | ≥ 100 | ≥ 100 |  |  |
| CCOC(=O)[C@@H](C)Oc1ccc(Oc2nc3ccc(F)cc3s2)cc1 [NZ-251, ethyl (2R)-2-{4-[(6-fluoro-1,3-benzothiazol-2-yl)oxy]phenoxy}propanoate] |  | 0.23 (≈ 0.0831 µg/mL) | ≥ 100 | ≥ 100 |  |  |
| CONC(=O)COc1ccc(Oc2cnc3cc(Cl)ccc3n2)cc1 [NZ-274, 2-{4-[(6-chloroquinoxalin-2-yl)oxy]phenoxy}-N-methoxyacetamide] | 3700 | 0.173 (≈ 0.0622 µg/mL) | ≥ 100 | ≥ 100 |  |  |
| O=C(O)Cc1ccc(Oc2nc3ccc(Cl)cc3s2)cc1 [NZ-287, 2-{4-[(6-chloro-1,3-benzothiazol-2-yl)oxy]phenyl}acetic acid] | 520 | 12 (≈ 3.84 µg/mL) | ≥ 100 | ≥ 100 |  |  |
| CON(C)C(=O)COc1ccc(Oc2cnc3cc(Cl)ccc3n2)cc1 [NZ-290, 2-{4-[(6-chloroquinoxalin-2-yl)oxy]phenoxy}-N-methoxy-N-methylacetamide] | 2500 | 1.5 (≈ 0.561 µg/mL) | ≥ 100 | ≥ 100 |  |  |
| CONC(=O)Cc1ccc(Oc2nc3ccc(Cl)cc3s2)cc1 [NZ-293, 2-{4-[(6-chloro-1,3-benzothiazol-2-yl)oxy]phenyl}-N-methoxyacetamide] | 1000 | 3 (≈ 1.05 µg/mL) | ≥ 100 | ≥ 100 |  |  |
| COC(=O)Cc1ccc(Oc2nc3ccc(F)cc3s2)cc1 [NZ-294, methyl 2-{4-[(6-fluoro-1,3-benzothiazol-2-yl)oxy]phenyl}acetate] | 12500 | 3 | ≥ 100 | ≥ 100 |  |  |
| CONC(=O)[C@@H](C)Oc1ccc(Oc2cnc3cc(Cl)ccc3n2)cc1 [NZ-295, (2R)-2-{4-[(6-chloroquinoxalin-2-yl)oxy]phenoxy}-N-methoxypropanamide] | 930 | 4.5 (≈ 1.68 µg/mL) | ≥ 100 | ≥ 100 |  |  |
| O=C(O)Cc1ccc(Oc2cnc3cc(Cl)ccc3n2)cc1 [NZ-298, 2-{4-[(6-chloroquinoxalin-2-yl)oxy]phenyl}acetic acid] | 280 | 25 (≈ 7.87 µg/mL) | ≥ 100 | ≥ 100 |  |  |
| O=C(O)Cc1ccc(Oc2nc3ccc(F)cc3s2)cc1 [NZ-299, 2-{4-[(6-fluoro-1,3-benzothiazol-2-yl)oxy]phenyl}acetic acid] | 324 | 12 (≈ 3.64 µg/mL) | ≥ 100 | ≥ 100 |  |  |
| CONC(=O)Cc1ccc(Oc2nc3ccc(F)cc3s2)cc1 [NZ-300, 2-{4-[(6-fluoro-1,3-benzothiazol-2-yl)oxy]phenyl}-N-methoxyacetamide] | 820 | 7.5 (≈ 2.49 µg/mL) | ≥ 100 | ≥ 100 |  |  |
| CONC(=O)Cc1ccc(Oc2cnc3cc(Cl)ccc3n2)cc1 [NZ-301, 2-{4-[(6-chloroquinoxalin-2-yl)oxy]phenyl}-N-methoxyacetamide] | 265 | 12 (≈ 4.13 µg/mL) | ≥ 100 | ≥ 100 |  |  |
| COC(=O)COc1ccc(Oc2nc3ccc(F)cc3s2)cc1 [NZ-303, methyl 2-{4-[(6-fluoro-1,3-benzothiazol-2-yl)oxy]phenoxy}acetate] |  | 4.5 |  | ≥ 100 | 50 |  |
| O=C(O)COc1ccc(Oc2nc3ccc(F)cc3s2)cc1 [NZ-304, 2-{4-[(6-fluoro-1,3-benzothiazol-2-yl)oxy]phenoxy}acetic acid] | 3400 | 25 (≈ 7.98 µg/mL) | ≥ 100 | ≥ 100 |  |  |
| CONC(=O)COc1ccc(Oc2nc3ccc(F)cc3s2)cc1 [NZ-305, 2-{4-[(6-fluoro-1,3-benzothiazol-2-yl)oxy]phenoxy}-N-methoxyacetamide] |  | 3 (≈ 1.05 µg/mL) | ≥ 100 | ≥ 100 |  | 50 |
| CCNC(=O)COc1ccc(Oc2cnc3cc(Cl)ccc3n2)cc1 [NZ-306, 2-{4-[(6-chloroquinoxalin-2-yl)oxy]phenoxy}-N-ethylacetamide] | 4600 | 25 (≈ 8.94 µg/mL) | ≥ 100 | ≥ 100 |  |  |

| SMILES | IC50 (Mtb AccD6) [nM] | MIC (Mtb strain mc^2-7000) [µM] | concentrations at which not toxic, s. cerevisiae cytotoxicity (S. cerevisiae) [µM] | concentrations at which not toxic, human fibroblast cytotoxicity (human fibroblast) [µM] | inhibition at 20 µM (Mtb AccD6; read-out: inhibition at 20 uM) [%] | inhibition at 15 µM (Mtb AccD6; 15 uM) [%] |
| --- | --- | --- | --- | --- | --- | --- |
| CONC(=O)C(C)(C)Oc1ccc(Oc2cnc3cc(Cl)ccc3n2)cc1 [NZ-316, 2-{4-[(6-chloroquinoxalin-2-yl)oxy]phenoxy}-N-methoxy-2-methylpropanamide] |  | 6 (≈ 2.33 µg/mL) | ≥ 100 | ≥ 100 |  |  |
| COC(=O)C(C)(C)Oc1ccc(Oc2nc3ccc(Cl)cc3s2)cc1 [NZ-317, methyl 2-{4-[(6-chloro-1,3-benzothiazol-2-yl)oxy]phenoxy}-2-methylpropanoate] |  | 6 (≈ 2.27 µg/mL) | ≥ 100 | ≥ 100 |  |  |
| CONC(=O)C(C)c1ccc(Oc2nc3ccc(OC)cc3s2)cc1 (centres unmarked) [NZ-335, N-methoxy-2-{4-[(6-methoxy-1,3-benzothiazol-2-yl)oxy]phenyl}propanamide] |  | 12 (≈ 4.3 µg/mL) | ≥ 100 | ≥ 100 |  |  |
| COC(=O)C(O)c1ccc(Oc2nc3ccc(Cl)cc3s2)cc1 (centres unmarked) [NZ-336, methyl 2-{4-[(6-chloro-1,3-benzothiazol-2-yl)oxy]phenyl}-2-hydroxyacetate] |  | 12 (≈ 4.2 µg/mL) | 50 to 100 | 50 to 100 |  |  |
| CONC(=O)C(O)c1ccc(Oc2nc3ccc(Cl)cc3s2)cc1 (centres unmarked) [NZ-338, 2-{4-[(6-chloro-1,3-benzothiazol-2-yl)oxy]phenyl}-2-hydroxy-N-methoxyacetamide] | 7200 | 25 (≈ 9.12 µg/mL) |  | ≥ 100 |  |  |
| CN(C)C(=O)Nc1ccc(Oc2cnc3cc(Cl)ccc3n2)cc1 [NZ-343, 1-{4-[(6-chloroquinoxalin-2-yl)oxy]phenyl}-3,3-dimethylurea] | 400 | 25 (≈ 8.57 µg/mL) |  | ≥ 100 |  |  |
| CC(C)NC(=O)Nc1ccc(Oc2cnc3cc(F)ccc3n2)cc1 [NZ-345, 1-{4-[(6-fluoroquinoxalin-2-yl)oxy]phenyl}-3-(propan-2-yl)urea] | 500 | 25 (≈ 8.51 µg/mL) |  | ≥ 100 |  |  |
| CC(C)NC(=O)Nc1ccc(Oc2ccc3cc(Cl)ccc3n2)cc1 [NZ-346, 1-{4-[(6-chloroquinolin-2-yl)oxy]phenyl}-3-(propan-2-yl)urea] | 400 | 50 (≈ 17.8 µg/mL) |  | ≥ 100 |  |  |
| COC(C(=O)O)c1ccc(Oc2nc3ccc(Cl)cc3s2)cc1 (centres unmarked) [NZ-356, 2-{4-[(6-chloro-1,3-benzothiazol-2-yl)oxy]phenyl}-2-methoxyacetic acid] | 1700 | 25 (≈ 8.74 µg/mL) | ≥ 100 |  |  |  |
| CONC(=O)C(OC)c1ccc(Oc2nc3ccc(Cl)cc3s2)cc1 (centres unmarked) [NZ-357, 2-{4-[(6-chloro-1,3-benzothiazol-2-yl)oxy]phenyl}-N,2-dimethoxyacetamide] | 3600 | 20 (≈ 7.58 µg/mL) | ≥ 100 |  |  |  |
| Cc1ccc2nc(Oc3ccc(NC(=O)NC(C)C)cc3)sc2c1 [NZ-358, 1-{4-[(6-methyl-1,3-benzothiazol-2-yl)oxy]phenyl}-3-(propan-2-yl)urea] | 20000 | 5.8 (≈ 1.98 µg/mL) | ≥ 100 |  |  |  |
| CC(C)NC(=O)Nc1ccc(Oc2nc3ccc(Br)cc3s2)cc1 [NZ-359, 1-{4-[(6-bromo-1,3-benzothiazol-2-yl)oxy]phenyl}-3-(propan-2-yl)urea] | 8400 | > 50 | ≥ 100 |  |  |  |
| CC(C)NC(=O)Nc1ccc(Oc2nc3ccccc3s2)cc1 [NZ-360, 1-[4-(1,3-benzothiazol-2-yloxy)phenyl]-3-(propan-2-yl)urea] | 13300 | 4.3 (≈ 1.41 µg/mL) | ≥ 100 |  |  |  |
| CC(C(=O)NCC(O)CO)c1ccc(Oc2nc3ccc(Cl)cc3s2)cc1 (centres unmarked) [NZ-372, 2-{4-[(6-chloro-1,3-benzothiazol-2-yl)oxy]phenyl}-N-(2,3-dihydroxypropyl)propanamide] | 2750 | 4.67 (≈ 1.9 µg/mL) | ≥ 100 |  |  |  |
| CC(C)NC(=O)Nc1ccc(Oc2nc3cc(Cl)c(Cl)cc3s2)cc1 [NZ-393, 1-{4-[(5,6-dichloro-1,3-benzothiazol-2-yl)oxy]phenyl}-3-(propan-2-yl)urea] | 5070 |  | ≥ 100 | ≥ 100 |  |  |
